Reference: PMC3933419, “Synthesis and Properties of a Selective Inhibitor of Homeodomain–Interacting Protein Kinase 2 (HIPK2)” (PLoS ONE, 2014)

Experiments:
Experiment in all cases: Kinase panel selectivity profiling
Assay type in all cases: biochemical
AMPK = conditions: TBID 1 μM, 125 kinase panel
Source text: (§1) The source of HIPK2 and of all of the other protein kinases used for specificity assays is as described elsewhere.
(§2) Conditions for the activity assays of all other protein kinases tested in selectivity experiments are as described or referenced in [9].

ASK1 = ASK1 (Homo sapiens, UniProt Q99683); conditions: TBID 1 μM, 125 kinase panel, read-out: % activity of the enzyme
Source text: as §1, §2

Aurora A = Aurora A (Homo sapiens, UniProt O14965); conditions: TBID 1 μM, 125 kinase panel, read-out: % activity of the enzyme
Sequence of Aurora A (O14965 whole entry): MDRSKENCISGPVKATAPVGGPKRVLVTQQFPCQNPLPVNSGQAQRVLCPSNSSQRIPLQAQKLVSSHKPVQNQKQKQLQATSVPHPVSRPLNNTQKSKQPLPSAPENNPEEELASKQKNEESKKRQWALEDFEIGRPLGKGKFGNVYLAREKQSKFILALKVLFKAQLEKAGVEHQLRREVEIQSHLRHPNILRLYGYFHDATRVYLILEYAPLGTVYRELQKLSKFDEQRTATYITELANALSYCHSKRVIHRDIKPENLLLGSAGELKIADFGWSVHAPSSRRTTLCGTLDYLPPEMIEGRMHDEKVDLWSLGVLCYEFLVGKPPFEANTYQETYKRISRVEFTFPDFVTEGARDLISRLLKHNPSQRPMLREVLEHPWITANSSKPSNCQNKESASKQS
Source text: as §1, §2

BRSK1 = BRSK1 (Homo sapiens, UniProt Q8TDC3); conditions: TBID 1 μM, 125 kinase panel, read-out: % activity of the enzyme
Sequence of BRSK1 (Q8TDC3 whole entry): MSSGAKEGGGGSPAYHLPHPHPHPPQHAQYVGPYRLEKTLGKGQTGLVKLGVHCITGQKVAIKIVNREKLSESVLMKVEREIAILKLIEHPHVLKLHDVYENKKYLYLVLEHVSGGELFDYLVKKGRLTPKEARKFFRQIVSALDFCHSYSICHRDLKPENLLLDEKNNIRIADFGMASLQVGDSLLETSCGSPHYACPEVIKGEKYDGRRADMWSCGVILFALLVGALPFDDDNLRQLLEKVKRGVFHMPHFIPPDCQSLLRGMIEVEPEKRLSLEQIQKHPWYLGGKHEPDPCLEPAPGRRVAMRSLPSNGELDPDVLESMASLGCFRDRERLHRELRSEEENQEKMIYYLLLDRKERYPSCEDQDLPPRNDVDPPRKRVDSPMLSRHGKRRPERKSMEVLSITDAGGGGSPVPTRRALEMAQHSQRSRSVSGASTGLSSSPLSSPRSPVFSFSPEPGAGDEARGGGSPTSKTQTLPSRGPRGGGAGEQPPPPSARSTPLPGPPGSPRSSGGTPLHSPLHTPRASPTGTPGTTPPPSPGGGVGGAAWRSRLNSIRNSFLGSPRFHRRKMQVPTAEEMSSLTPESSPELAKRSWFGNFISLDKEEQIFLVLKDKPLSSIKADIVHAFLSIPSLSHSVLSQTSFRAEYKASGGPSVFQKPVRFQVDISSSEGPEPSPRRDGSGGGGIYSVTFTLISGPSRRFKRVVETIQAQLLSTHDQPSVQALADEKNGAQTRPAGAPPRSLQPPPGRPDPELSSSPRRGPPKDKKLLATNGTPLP
Source text: as §1, §2

BRSK2 = BRSK2 (Homo sapiens, UniProt Q8IWQ3); conditions: TBID 1 μM, 125 kinase panel, read-out: % activity of the enzyme
Source text: as §1, §2

CAMK1 = CAMK1 (Homo sapiens, UniProt Q14012); conditions: TBID 1 μM, 125 kinase panel, read-out: % activity of the enzyme
Source text: as §1, §2

CHK1 = CHK1 (Homo sapiens, UniProt O14757); conditions: TBID 1 μM, 125 kinase panel, read-out: % activity of the enzyme
Source text: as §1, §2

CSK = CSK (Homo sapiens, UniProt P41240); conditions: TBID 1 μM, 125 kinase panel, read-out: % activity of the enzyme
Source text: as §1, §2

DYRK1A = DYRK1A (Homo sapiens, UniProt Q13627)
Source text: as §1, §2

DYRK3 = DYRK3 (Homo sapiens, UniProt O43781); conditions: TBID 1 μM, 125 kinase panel, read-out: % activity of the enzyme
Source text: as §1, §2

EPH-A2 = EPH-A2 (Homo sapiens, UniProt P29317); conditions: TBID 1 μM, 125 kinase panel, read-out: % activity of the enzyme
Source text: as §1, §2

EPH-A4 = EPH-A4 (Homo sapiens, UniProt P54764); conditions: TBID 1 μM, 125 kinase panel, read-out: % activity of the enzyme
Source text: as §1, §2

EPH-B2 = EPH-B2 (Homo sapiens, UniProt P29323); conditions: TBID 1 μM, 125 kinase panel, read-out: % activity of the enzyme
Source text: as §1, §2

EPH-B3 = EPH-B3 (Homo sapiens, UniProt P54753); conditions: TBID 1 μM, 125 kinase panel, read-out: % activity of the enzyme
Source text: as §1, §2

ERK1 = ERK1 (Homo sapiens, UniProt P27361); conditions: TBID 1 μM, 125 kinase panel, read-out: % activity of the enzyme
Source text: as §1, §2

GSK3b = GSK3b (Homo sapiens, UniProt P49841); conditions: TBID 1 μM, 125 kinase panel, read-out: % activity of the enzyme
Source text: as §1, §2

HIPK1 = HIPK1 (Homo sapiens, UniProt Q86Z02); conditions: TBID 1 μM, 125 kinase panel, read-out: % activity of the enzyme
Sequence of HIPK1 (Q86Z02 whole entry): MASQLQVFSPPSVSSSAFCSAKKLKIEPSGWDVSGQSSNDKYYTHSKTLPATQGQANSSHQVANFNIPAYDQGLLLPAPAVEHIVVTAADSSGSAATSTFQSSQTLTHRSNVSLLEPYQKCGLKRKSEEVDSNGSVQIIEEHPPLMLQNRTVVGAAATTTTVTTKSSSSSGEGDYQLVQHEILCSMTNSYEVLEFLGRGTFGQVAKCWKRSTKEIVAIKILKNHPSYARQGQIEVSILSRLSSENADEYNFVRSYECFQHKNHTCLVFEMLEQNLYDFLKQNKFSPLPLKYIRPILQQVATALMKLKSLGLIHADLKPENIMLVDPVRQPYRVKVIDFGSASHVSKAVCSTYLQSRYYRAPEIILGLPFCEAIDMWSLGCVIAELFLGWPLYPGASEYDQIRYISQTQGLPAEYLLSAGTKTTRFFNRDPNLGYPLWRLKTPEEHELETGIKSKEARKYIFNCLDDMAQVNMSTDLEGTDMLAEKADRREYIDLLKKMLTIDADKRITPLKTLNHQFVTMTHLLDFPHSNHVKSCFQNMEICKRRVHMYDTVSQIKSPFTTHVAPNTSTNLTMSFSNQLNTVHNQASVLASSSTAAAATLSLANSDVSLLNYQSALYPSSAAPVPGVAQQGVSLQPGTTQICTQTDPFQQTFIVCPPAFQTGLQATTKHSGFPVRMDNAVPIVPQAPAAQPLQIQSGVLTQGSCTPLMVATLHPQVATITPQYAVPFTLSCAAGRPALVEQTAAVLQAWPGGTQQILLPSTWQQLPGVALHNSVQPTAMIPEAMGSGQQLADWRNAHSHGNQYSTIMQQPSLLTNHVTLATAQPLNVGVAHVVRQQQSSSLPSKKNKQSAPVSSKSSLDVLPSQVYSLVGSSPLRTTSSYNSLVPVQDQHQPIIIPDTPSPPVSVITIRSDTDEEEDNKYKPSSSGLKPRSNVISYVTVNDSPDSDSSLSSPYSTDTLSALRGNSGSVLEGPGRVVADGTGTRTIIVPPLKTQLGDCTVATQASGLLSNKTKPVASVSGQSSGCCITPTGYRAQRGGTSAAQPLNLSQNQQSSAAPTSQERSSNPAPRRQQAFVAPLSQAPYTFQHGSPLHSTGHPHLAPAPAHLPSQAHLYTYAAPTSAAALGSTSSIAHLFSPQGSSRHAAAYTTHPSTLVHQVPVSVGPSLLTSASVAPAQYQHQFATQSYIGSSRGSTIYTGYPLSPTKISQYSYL
Source text: as §1, §2

HIPK2 = target: T1, HIPK2 (Homo sapiens, UniProt Q9H2X6)
T1 construct: The source of HIPK2 and of all of the other protein kinases used for specificity assays is as described elsewhere
T1 sequence (Q9H2X6 whole entry): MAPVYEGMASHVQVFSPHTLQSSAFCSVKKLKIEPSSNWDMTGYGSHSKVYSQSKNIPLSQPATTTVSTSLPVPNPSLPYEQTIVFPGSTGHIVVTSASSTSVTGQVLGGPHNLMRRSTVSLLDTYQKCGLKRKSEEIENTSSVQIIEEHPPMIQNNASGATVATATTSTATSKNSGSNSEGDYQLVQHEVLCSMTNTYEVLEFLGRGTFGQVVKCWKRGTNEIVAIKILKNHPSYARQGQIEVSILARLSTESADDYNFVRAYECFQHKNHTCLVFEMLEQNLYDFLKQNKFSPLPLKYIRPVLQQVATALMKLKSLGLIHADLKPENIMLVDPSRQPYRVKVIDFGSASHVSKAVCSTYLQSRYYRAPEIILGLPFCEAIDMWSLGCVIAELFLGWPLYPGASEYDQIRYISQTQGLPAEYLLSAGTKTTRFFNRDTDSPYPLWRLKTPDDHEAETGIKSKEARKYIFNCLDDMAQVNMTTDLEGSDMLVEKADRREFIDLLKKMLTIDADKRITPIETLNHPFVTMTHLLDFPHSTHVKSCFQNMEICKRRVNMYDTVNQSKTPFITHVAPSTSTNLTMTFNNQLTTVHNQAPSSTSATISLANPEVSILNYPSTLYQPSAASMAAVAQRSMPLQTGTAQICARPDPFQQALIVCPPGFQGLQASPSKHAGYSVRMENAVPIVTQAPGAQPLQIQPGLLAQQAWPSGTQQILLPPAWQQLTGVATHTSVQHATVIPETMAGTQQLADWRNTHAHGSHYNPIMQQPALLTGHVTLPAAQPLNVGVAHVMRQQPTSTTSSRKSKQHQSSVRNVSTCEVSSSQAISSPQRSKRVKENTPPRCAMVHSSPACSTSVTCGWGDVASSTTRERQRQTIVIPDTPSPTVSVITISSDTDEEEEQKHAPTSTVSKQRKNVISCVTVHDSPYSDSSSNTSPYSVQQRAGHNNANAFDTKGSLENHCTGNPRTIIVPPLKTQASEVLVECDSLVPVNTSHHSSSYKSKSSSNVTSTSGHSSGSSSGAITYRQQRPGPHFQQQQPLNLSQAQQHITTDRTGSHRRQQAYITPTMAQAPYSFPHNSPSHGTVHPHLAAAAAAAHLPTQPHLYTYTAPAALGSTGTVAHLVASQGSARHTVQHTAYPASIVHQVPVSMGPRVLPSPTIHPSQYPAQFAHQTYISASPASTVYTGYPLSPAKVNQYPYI
Source text: as §1, §2

HIPK3 = HIPK3 (Homo sapiens, UniProt Q9H422); conditions: TBID 1 μM, 125 kinase panel, read-out: % activity of the enzyme
Source text: as §1, §2

IR = IR (Homo sapiens, UniProt P06213); conditions: TBID 1 μM, 125 kinase panel, read-out: % activity of the enzyme
Source text: as §1, §2

LKB1 = LKB1 (Homo sapiens, UniProt Q15831); conditions: TBID 1 μM, 125 kinase panel, read-out: % activity of the enzyme
Source text: as §1, §2

MAPKAP-K3 = MAPKAP-K3 (Homo sapiens, UniProt Q16644); conditions: TBID 1 μM, 125 kinase panel, read-out: % activity of the enzyme
Sequence of MAPKAP-K3 (Q16644 whole entry): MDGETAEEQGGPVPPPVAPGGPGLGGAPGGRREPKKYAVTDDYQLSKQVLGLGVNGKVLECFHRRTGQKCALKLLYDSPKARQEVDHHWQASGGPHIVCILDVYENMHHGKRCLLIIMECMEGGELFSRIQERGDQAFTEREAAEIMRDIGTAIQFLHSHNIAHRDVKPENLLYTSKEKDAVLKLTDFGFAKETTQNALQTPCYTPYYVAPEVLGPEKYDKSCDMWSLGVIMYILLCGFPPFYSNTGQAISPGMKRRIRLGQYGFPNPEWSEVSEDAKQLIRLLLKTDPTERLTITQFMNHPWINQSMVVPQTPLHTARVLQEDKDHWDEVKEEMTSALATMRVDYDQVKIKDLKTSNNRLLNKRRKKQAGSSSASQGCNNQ
Source text: as §1, §2

MARK1 = MARK1 (Homo sapiens, UniProt Q9P0L2); conditions: TBID 1 μM, 125 kinase panel, read-out: % activity of the enzyme
Source text: as §1, §2

MARK3 = MARK3 (Homo sapiens, UniProt P27448); conditions: TBID 1 μM, 125 kinase panel, read-out: % activity of the enzyme
Source text: as §1, §2

MKK1 = MKK1 (Homo sapiens, UniProt Q02750); conditions: TBID 1 μM, 125 kinase panel, read-out: % activity of the enzyme
Sequence of MKK1 (Q02750 whole entry): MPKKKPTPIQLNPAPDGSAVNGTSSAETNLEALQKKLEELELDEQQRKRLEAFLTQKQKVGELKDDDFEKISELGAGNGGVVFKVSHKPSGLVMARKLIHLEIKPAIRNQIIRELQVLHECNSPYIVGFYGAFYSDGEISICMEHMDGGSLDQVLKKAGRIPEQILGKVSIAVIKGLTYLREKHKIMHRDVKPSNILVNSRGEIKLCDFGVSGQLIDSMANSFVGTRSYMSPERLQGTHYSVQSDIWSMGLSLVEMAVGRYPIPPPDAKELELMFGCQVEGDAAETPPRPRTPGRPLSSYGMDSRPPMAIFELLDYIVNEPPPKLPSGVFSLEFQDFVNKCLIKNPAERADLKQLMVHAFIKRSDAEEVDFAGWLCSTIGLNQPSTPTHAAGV
Source text: as §1, §2

MKK6 = MKK6 (Homo sapiens, UniProt P52564); conditions: TBID 1 μM, 125 kinase panel, read-out: % activity of the enzyme
Source text: as §1, §2

NEK2a = NEK2a (Homo sapiens, UniProt P51955); conditions: TBID 1 μM, 125 kinase panel, read-out: % activity of the enzyme
Source text: as §1, §2

PAK6 = PAK6 (Homo sapiens, UniProt Q9NQU5); conditions: TBID 1 μM, 125 kinase panel, read-out: % activity of the enzyme
Sequence of PAK6 (Q9NQU5 whole entry): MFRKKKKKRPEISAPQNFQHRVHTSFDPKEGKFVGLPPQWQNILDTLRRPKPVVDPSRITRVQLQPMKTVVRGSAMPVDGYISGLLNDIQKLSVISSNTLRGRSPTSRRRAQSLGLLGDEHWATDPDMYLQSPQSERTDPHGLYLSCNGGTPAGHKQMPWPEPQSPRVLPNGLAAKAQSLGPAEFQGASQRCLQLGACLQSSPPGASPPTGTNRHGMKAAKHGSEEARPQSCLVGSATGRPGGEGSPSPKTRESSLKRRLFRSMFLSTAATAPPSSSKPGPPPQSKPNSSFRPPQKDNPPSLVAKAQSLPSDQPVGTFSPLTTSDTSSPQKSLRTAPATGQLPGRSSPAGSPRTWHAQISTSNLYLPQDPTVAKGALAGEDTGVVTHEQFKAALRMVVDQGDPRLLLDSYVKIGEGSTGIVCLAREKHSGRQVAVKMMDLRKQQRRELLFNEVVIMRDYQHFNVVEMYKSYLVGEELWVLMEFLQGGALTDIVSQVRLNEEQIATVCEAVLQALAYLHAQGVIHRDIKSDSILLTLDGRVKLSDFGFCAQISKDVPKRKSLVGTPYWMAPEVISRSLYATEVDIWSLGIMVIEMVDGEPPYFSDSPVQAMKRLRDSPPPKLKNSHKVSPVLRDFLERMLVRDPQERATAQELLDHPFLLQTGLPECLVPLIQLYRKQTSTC
Source text: as §1, §2

PHK = PHK (Homo sapiens, UniProt Q16816); conditions: TBID 1 μM, 125 kinase panel, read-out: % activity of the enzyme
Source text: as §1, §2

PKA = PKA (Homo sapiens, UniProt P17612); conditions: TBID 1 μM, 125 kinase panel, read-out: % activity of the enzyme
Source text: as §1, §2

PKBb = PKBb (Homo sapiens, UniProt P31751); conditions: TBID 1 μM, 125 kinase panel, read-out: % activity of the enzyme
Source text: as §1, §2

PKCz = PKCz (Homo sapiens, UniProt Q05513); conditions: TBID 1 μM, 125 kinase panel, read-out: % activity of the enzyme
Source text: as §1, §2

PRAK = PRAK (Homo sapiens, UniProt Q8IW41); conditions: TBID 1 μM, 125 kinase panel, read-out: % activity of the enzyme
Source text: as §1, §2

PRK2 = PRK2 (Homo sapiens, UniProt Q16513); conditions: TBID 1 μM, 125 kinase panel, read-out: % activity of the enzyme
Source text: as §1, §2

RSK1 = RSK1 (Homo sapiens, UniProt Q15418); conditions: TBID 1 μM, 125 kinase panel, read-out: % activity of the enzyme
Source text: as §1, §2

S6K1 = S6K1 (Homo sapiens, UniProt P23443); conditions: TBID 1 μM, 125 kinase panel, read-out: % activity of the enzyme
Source text: as §1, §2

STK33 = STK33 (Homo sapiens, UniProt Q9BYT3); conditions: TBID 1 μM, 125 kinase panel, read-out: % activity of the enzyme
Source text: as §1, §2

TBK1 = TBK1 (Homo sapiens, UniProt Q9UHD2); conditions: TBID 1 μM, 125 kinase panel, read-out: % activity of the enzyme
Source text: as §1, §2

TESK1 = TESK1 (Homo sapiens, UniProt Q15569); conditions: TBID 1 μM, 125 kinase panel, read-out: % activity of the enzyme
Source text: as §1, §2

TTBK1 = TTBK1 (Homo sapiens, UniProt Q5TCY1); conditions: TBID 1 μM, 125 kinase panel, read-out: % activity of the enzyme
Source text: as §1, §2

p38b MAPK = p38b MAPK (Homo sapiens, UniProt Q15759); conditions: TBID 1 μM, 125 kinase panel, read-out: % activity of the enzyme
Source text: as §1, §2

[1] = TBID 1 μM, 125 kinase panel, read-out: % activity of the enzyme

In the case of `O=C1c2c(Br)c(Br)c(Br)c(Br)c2C(=O)N1c1ncc[nH]1` [TBID, 4,5,6,7-Tetrabromo-2-(1H-imidazol-2-yl)isoindoline-1,3-dione], the “% activity of the enzyme” value (AMPK) is reported as 87%, the activity at 1 µM (ASK1) is reported as 126% and the activity at 1 µM (Aurora A) is reported as 101%. For the same compound, the activity at 1 µM (BRSK1) was 110%, the activity at 1 µM (BRSK2) was 99% and the activity at 1 µM (CAMK1) was 78%. It also gave an activity at 1 µM (CHK1) of 102%, an activity at 1 µM (CSK) of 89% and a remaining activity at 10 µM (DYRK1A; 10 µM TBID, panel of 76 protein kinases, read-out: residual activity) of 72%. The activity at 1 µM (DYRK1A; [1]) was 104%, the activity at 1 µM (DYRK3) was 101% and the activity at 1 µM (EPH-A2) was 89%. It also gave an activity at 1 µM (EPH-A4) of 100%, an activity at 1 µM (EPH-B2) of 108% and an activity at 1 µM (EPH-B3) of 103%. The activity at 1 µM (ERK1) was 98%, the activity at 1 µM (GSK3b) was 94% and the activity at 1 µM (HIPK1) was 39%. The residual activity (HIPK2; 10 µM TBID, panel of 76 protein kinases) was “entirely suppressed”, the activity at 1 µM (HIPK2; [1]) was 31% and the activity at 1 µM (HIPK3) was 53%. It also gave an activity at 1 µM (IR) of 101%, an activity at 1 µM (LKB1) of 102% and an activity at 1 µM (MAPKAP-K3) of 98%. It also gave an activity at 1 µM (MARK1) of 102%, an activity at 1 µM (MARK3) of 115% and an activity at 1 µM (MKK1) of 115%. The activity at 1 µM (MKK6) was 90%, the activity at 1 µM (NEK2a) was 89% and the activity at 1 µM (PAK6) was 102%. For the same compound, the activity at 1 µM (PHK) was 116%, the activity at 1 µM (PKA) was 104% and the activity at 1 µM (PKBb) was 104%. It also gave an activity at 1 µM (PKCz) of 104%, an activity at 1 µM (PRAK) of 95% and an activity at 1 µM (PRK2) of 96%. It also gave an activity at 1 µM (RSK1) of 93%, an activity at 1 µM (S6K1) of 94% and an activity at 1 µM (STK33) of 111%. It also gave an activity at 1 µM (TBK1) of 108%, an activity at 1 µM (TESK1) of 103% and an activity at 1 µM (TTBK1) of 113%. For the same compound, the activity at 1 µM (p38b MAPK) was 111%.
